Measured values taken from ChEMBL document CHEMBL3632469, “Discovery of dihydroquinazolinone derivatives as potent, selective, and CNS-penetrant M(1) and M(4) muscarinic acetylcholine receptors agonists” (Bioorg Med Chem Lett, 2015).

Key:
[1] = target: T1, Muscarinic acetylcholine receptor M2 (Homo sapiens) (UniProt P08172); assay: Agonist activity at human muscarinic M2 acetylcholine receptor expressed in CHO cells co-expressing Galpha16 assessed as calcium mobilization at 0.3 uM by FLIPR assay; type: functional, cell-based
T1 sequence (whole entry): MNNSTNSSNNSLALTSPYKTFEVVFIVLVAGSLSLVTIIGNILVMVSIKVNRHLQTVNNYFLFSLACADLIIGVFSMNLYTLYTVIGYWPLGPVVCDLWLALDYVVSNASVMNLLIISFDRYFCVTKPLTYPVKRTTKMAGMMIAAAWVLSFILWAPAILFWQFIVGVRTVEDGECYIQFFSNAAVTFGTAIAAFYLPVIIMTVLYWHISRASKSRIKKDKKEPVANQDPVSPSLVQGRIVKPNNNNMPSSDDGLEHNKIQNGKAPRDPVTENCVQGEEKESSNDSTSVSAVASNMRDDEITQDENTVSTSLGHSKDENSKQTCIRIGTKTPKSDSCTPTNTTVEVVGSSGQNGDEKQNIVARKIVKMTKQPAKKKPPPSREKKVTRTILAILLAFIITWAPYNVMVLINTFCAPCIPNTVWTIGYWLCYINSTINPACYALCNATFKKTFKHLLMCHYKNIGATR

[2] = target: Muscarinic acetylcholine receptor M3 (Homo sapiens) (UniProt P20309); assay: Agonist activity at human muscarinic M3 acetylcholine receptor expressed in CHO cells assessed as calcium mobilization at 0.3 uM by FLIPR assay; type: functional, cell-based
Chain of Muscarinic acetylcholine receptor M3 (Homo sapiens) (P20309 whole entry, looked up): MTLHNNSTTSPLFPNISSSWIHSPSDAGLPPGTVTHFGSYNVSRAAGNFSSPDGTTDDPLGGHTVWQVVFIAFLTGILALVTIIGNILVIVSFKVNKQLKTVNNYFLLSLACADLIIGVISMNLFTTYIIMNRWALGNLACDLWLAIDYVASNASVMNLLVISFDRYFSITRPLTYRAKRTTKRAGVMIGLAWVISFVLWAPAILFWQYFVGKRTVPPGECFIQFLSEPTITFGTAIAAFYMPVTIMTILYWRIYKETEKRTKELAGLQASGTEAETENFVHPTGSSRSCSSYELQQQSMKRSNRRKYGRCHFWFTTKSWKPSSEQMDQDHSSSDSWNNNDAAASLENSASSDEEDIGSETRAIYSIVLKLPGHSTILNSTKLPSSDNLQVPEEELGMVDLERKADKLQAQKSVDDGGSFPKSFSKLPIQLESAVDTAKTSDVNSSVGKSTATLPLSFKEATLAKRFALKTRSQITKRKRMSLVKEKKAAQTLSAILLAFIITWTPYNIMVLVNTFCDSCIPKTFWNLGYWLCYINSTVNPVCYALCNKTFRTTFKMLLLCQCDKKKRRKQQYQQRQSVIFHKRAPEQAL

[3] = target: Cytochrome P450 1A2 (Homo sapiens, UniProt P05177); assay: Inhibition of CYP1A2 (unknown origin); type: ADME
[4] = target: Cytochrome P450 2C19 (Homo sapiens, UniProt P33261); assay: Inhibition of CYP2C19 (unknown origin); type: ADME
Chain of Cytochrome P450 2C19 (P33261 whole entry): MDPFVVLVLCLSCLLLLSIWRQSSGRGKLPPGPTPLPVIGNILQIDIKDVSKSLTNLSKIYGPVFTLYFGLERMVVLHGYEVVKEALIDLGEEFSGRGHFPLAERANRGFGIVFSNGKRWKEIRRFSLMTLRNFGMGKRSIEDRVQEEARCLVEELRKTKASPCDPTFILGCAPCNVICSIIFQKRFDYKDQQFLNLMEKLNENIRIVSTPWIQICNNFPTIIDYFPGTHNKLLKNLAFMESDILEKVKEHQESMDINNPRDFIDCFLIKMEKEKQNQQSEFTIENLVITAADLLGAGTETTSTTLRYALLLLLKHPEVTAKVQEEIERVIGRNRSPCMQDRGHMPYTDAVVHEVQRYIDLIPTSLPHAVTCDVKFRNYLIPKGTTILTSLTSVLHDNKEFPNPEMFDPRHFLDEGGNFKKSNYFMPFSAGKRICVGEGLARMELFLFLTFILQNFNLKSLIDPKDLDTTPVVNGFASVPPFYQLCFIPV

[5] = target: Nuclear receptor subfamily 1 group I member 2 (Homo sapiens, UniProt O75469); assay: Induction of human PXR; type: ADME
Chain of Nuclear receptor subfamily 1 group I member 2 (O75469 whole entry): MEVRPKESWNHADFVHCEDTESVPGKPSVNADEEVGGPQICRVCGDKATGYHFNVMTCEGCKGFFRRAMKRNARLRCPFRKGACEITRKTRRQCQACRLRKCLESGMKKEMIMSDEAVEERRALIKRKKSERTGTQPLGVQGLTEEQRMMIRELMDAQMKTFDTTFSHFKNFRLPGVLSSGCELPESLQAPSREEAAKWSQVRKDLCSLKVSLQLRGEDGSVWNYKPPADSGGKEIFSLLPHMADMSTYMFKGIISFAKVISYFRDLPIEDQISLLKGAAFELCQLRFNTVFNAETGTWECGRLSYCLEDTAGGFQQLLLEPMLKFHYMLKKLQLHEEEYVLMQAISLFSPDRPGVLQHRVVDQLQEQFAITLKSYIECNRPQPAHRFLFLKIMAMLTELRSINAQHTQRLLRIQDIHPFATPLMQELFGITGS

[6] = target: T2, Muscarinic acetylcholine receptor M1 (Homo sapiens) (UniProt P11229); assay: Agonist activity at human muscarinic M1 acetylcholine receptor expressed in CHO cells assessed as calcium mobilization by FLIPR assay relative to control; type: functional, cell-based
T2 sequence (whole entry): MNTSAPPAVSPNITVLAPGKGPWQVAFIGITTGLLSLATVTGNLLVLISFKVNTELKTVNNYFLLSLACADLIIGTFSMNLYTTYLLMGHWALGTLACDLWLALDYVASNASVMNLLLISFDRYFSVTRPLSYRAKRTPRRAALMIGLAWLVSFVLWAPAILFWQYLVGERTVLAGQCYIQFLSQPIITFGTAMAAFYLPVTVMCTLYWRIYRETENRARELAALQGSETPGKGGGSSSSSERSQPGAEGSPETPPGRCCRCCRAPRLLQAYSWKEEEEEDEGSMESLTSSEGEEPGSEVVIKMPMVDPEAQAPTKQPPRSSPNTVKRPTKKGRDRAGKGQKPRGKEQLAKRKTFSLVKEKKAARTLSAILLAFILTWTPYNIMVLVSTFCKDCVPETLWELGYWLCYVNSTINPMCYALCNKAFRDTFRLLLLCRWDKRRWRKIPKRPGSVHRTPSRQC

[7] = target: Muscarinic acetylcholine receptor M3 (Homo sapiens) (UniProt P20309); assay: Agonist activity at human muscarinic M3 acetylcholine receptor expressed in CHO cells assessed as calcium mobilization at 30 uM by FLIPR assay; type: functional, cell-based
[8] = target: Adenosine receptor A1 (Homo sapiens) (UniProt P30542); assay: Agonist activity at adenosine a1 receptor (unknown origin) expressed in CHO cells assessed as calcium mobilization at 3 uM; type: functional, cell-based
[9] = target: Adenosine receptor A2a (Homo sapiens) (UniProt P29274); assay: Agonist activity at adenosine a2a receptor (unknown origin) expressed in CHO cells assessed as calcium mobilization at 3 uM; type: functional, cell-based
Chain of Adenosine receptor A2a (Homo sapiens) (P29274 whole entry): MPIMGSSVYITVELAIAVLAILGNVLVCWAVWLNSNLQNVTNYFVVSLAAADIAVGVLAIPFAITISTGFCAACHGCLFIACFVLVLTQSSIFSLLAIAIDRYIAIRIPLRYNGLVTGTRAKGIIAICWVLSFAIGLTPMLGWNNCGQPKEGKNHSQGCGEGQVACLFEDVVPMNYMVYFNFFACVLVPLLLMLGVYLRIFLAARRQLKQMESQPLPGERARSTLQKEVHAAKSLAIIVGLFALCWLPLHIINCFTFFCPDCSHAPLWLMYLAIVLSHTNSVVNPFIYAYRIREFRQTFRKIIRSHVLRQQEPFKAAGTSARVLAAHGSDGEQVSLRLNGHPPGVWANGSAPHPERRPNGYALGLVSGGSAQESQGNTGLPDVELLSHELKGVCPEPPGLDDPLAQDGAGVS

[10] = target: Type-1 angiotensin II receptor (Homo sapiens) (UniProt P30556); assay: Agonist activity at angiotensin 2 type 1 receptor (unknown origin) expressed in CHO cells assessed as calcium mobilization at 3 uM; type: functional, cell-based
[11] = target: Cannabinoid receptor 1 (Homo sapiens) (UniProt P21554); assay: Agonist activity at CB1 receptor (unknown origin) expressed in CHO cells assessed as calcium mobilization at 3 uM; type: functional, cell-based
[12] = target: D(2) dopamine receptor (Homo sapiens) (UniProt P14416); assay: Agonist activity at dopamine D2S receptor (unknown origin) expressed in CHO cells assessed as calcium mobilization at 3 uM; type: functional, cell-based
Chain of D(2) dopamine receptor (Homo sapiens) (P14416 whole entry): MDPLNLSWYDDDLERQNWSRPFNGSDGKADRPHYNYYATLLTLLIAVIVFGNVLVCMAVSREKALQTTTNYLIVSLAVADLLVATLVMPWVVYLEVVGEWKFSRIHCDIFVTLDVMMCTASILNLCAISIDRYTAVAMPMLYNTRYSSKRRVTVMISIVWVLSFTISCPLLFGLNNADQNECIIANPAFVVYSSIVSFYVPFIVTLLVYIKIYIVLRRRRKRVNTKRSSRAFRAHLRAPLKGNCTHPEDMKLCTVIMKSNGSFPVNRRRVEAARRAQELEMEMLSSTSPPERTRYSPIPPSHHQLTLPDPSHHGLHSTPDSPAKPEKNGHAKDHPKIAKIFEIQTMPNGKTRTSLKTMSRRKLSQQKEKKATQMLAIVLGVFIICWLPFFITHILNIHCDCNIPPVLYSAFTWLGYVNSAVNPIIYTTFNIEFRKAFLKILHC

[13] = system: CHO; assay: Agonist activity at GaBaB receptor (unknown origin) expressed in CHO cells assessed as calcium mobilization at 3 uM; type: cell-based; conditions: Homo sapiens
[14] = target: Histamine H1 receptor (Homo sapiens) (UniProt P35367); assay: Agonist activity at histamine H1 receptor (unknown origin) expressed in CHO cells assessed as calcium mobilization at 3 uM; type: functional, cell-based
[15] = target: Substance-P receptor (Homo sapiens) (UniProt P25103); assay: Agonist activity at TaCR1 receptor (unknown origin) expressed in CHO cells assessed as calcium mobilization at 3 uM; type: functional, cell-based
[16] = target: Neuropeptide Y receptor type 2 (Homo sapiens) (UniProt P49146); assay: Agonist activity at NPY2 receptor (unknown origin) expressed in CHO cells assessed as calcium mobilization at 3 uM; type: functional, cell-based
[17] = target: Nociceptin receptor (Homo sapiens) (UniProt P41146); assay: Agonist activity at OPRL1 receptor (unknown origin) expressed in CHO cells assessed as calcium mobilization at 3 uM; type: functional, cell-based
Chain of Nociceptin receptor (Homo sapiens) (P41146 whole entry): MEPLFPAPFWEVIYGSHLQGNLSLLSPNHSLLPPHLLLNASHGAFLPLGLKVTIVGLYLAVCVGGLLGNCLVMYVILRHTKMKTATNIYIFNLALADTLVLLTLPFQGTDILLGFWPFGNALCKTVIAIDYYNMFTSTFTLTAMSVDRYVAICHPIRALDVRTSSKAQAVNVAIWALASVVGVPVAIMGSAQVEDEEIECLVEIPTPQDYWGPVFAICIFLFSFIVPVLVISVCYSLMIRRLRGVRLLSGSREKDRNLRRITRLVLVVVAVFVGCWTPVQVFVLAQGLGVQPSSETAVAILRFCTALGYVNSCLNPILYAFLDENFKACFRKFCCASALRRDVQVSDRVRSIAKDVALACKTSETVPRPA

[18] = target: 5-hydroxytryptamine receptor 1E (Homo sapiens) (UniProt P28566); assay: Agonist activity at 5-HT1E receptor (unknown origin) expressed in CHO cells assessed as calcium mobilization at 3 uM; type: functional, cell-based
[19] = target: 5-hydroxytryptamine receptor 2B (Homo sapiens) (UniProt P41595); assay: Agonist activity at 5-HT2B receptor (unknown origin) expressed in CHO cells assessed as calcium mobilization at 3 uM; type: functional, cell-based
Chain of 5-hydroxytryptamine receptor 2B (Homo sapiens) (P41595 whole entry): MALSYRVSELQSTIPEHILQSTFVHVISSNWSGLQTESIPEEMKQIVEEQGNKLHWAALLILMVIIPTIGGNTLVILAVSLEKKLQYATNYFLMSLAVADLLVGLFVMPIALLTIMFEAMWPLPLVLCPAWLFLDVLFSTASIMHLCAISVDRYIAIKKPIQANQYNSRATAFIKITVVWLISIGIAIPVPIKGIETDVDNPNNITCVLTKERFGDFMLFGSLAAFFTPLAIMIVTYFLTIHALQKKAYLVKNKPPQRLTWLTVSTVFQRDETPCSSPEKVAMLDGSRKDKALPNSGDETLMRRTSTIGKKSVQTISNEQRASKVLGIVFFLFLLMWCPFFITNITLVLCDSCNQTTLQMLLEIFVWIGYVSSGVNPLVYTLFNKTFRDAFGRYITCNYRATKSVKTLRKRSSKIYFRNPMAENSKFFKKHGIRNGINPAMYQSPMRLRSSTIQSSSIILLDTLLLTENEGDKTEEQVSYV

[20] = target: 5-hydroxytryptamine receptor 5A (Homo sapiens) (UniProt P47898); assay: Agonist activity at 5-HT5a receptor (unknown origin) expressed in CHO cells assessed as calcium mobilization at 3 uM; type: functional, cell-based
Chain of 5-hydroxytryptamine receptor 5A (Homo sapiens) (P47898 whole entry): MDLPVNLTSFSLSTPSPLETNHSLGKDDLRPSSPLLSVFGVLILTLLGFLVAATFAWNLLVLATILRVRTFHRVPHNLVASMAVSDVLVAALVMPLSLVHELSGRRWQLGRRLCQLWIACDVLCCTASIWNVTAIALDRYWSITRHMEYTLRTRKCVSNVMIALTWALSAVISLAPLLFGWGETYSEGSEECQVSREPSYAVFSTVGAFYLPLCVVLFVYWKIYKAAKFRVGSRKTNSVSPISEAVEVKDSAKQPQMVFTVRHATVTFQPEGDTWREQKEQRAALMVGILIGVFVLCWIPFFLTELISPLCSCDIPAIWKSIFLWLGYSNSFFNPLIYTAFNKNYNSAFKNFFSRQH

[21] = target: 5-hydroxytryptamine receptor 6 (Homo sapiens) (UniProt P50406); assay: Agonist activity at 5-HT6 receptor (unknown origin) expressed in CHO cells assessed as calcium mobilization at 3 uM; type: functional, cell-based
Chain of 5-hydroxytryptamine receptor 6 (Homo sapiens) (P50406 whole entry): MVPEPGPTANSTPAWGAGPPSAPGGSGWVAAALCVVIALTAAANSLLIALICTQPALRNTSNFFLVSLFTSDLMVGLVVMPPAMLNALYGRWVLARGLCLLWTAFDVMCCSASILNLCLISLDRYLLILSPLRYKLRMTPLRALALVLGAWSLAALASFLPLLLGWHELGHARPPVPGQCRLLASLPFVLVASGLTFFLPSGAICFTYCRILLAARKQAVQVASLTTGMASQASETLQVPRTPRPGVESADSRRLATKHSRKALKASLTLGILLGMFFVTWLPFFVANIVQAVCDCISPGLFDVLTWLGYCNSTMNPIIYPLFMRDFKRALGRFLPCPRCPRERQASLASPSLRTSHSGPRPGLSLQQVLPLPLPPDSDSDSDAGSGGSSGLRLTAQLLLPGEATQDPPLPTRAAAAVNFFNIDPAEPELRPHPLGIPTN

[22] = target: 5-hydroxytryptamine receptor 7 (Homo sapiens) (UniProt P34969); assay: Agonist activity at 5-HT7B receptor (unknown origin) expressed in CHO cells assessed as calcium mobilization at 3 uM; type: functional, cell-based
Chain of 5-hydroxytryptamine receptor 7 (Homo sapiens) (P34969 whole entry): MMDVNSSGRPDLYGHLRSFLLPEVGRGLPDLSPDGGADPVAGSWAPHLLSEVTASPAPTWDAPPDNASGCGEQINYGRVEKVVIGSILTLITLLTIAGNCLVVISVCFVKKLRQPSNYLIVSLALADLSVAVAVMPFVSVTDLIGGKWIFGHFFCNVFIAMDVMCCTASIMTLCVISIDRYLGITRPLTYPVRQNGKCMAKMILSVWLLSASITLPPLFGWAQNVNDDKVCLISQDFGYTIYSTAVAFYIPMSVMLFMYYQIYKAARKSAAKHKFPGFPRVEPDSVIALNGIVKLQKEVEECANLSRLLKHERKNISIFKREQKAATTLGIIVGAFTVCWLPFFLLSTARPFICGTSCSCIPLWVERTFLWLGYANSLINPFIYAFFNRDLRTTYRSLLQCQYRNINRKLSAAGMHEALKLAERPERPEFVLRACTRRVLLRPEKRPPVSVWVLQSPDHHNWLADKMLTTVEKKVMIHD

[23] = target: Alpha-2A adrenergic receptor (Homo sapiens) (UniProt P08913); assay: Antagonist activity at adrenergic a2a receptor (unknown origin) expressed in CHO cells assessed as calcium mobilization at 3 uM; type: functional, cell-based
Chain of Alpha-2A adrenergic receptor (Homo sapiens) (P08913 whole entry): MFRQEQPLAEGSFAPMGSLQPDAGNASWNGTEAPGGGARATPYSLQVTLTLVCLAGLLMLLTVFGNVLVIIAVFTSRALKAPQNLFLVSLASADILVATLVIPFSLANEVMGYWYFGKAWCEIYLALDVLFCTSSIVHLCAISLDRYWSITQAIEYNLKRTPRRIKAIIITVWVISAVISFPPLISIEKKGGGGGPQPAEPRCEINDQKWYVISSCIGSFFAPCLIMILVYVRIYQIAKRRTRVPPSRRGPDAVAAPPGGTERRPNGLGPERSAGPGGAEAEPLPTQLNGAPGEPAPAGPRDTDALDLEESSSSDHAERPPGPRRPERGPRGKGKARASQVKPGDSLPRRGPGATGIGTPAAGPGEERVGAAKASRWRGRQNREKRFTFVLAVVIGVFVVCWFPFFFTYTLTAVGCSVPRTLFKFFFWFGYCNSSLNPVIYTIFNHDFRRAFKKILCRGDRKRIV

[24] = target: Nociceptin receptor (Homo sapiens) (UniProt P41146); assay: Antagonist activity at OPRL1 receptor (unknown origin) expressed in CHO cells assessed as calcium mobilization at 3 uM; type: functional, cell-based
[25] = target: 5-hydroxytryptamine receptor 4 (Homo sapiens) (UniProt Q13639); assay: Antagonist activity at 5-HT4B receptor (unknown origin) expressed in CHO cells assessed as calcium mobilization at 3 uM; type: functional, cell-based
[26] = target: 5-hydroxytryptamine receptor 7 (Homo sapiens) (UniProt P34969); assay: Antagonist activity at 5-HT7B receptor (unknown origin) expressed in CHO cells assessed as calcium mobilization at 3 uM; type: functional, cell-based

CCOC(=O)N1[C@@H]2CC[C@H]1C[C@H](CN1CC[C@@H](N3Cc4ccccc4NC3=O)C1)C2
Activity [1]: 1%
Activity [2]: 2%
IC50 [3]: > 2 µM
IC50 [4]: > 2 µM
Activity [5]: Not Active
Activity [6]: 84%
Activity [7]: 2%
Activity [8]: -0.25%
Activity [9]: 0.38%
Activity [10]: -0.18%
Activity [11]: 1.66%
Activity [12]: -0.5%
Activity [13]: 0.7%
Activity [14]: 0.17%
Activity [15]: -0.13%
Activity [16]: 1.73%
Activity [17]: 0.23%
Activity [18]: 0.11%
Activity [19]: -0.03%
Activity [20]: -1.06%
Activity [21]: -0.54%
Activity [22]: -1.12%
inhibition [23]: 9.18%
inhibition [24]: -4.61%
inhibition [25]: -1.57%
inhibition [26]: 15.4%
